Test results from US12290073B2, “Anti-microbial compound and methods of use” (SHENZHEN UNIVERSITY, priority 2019, dated 2025).
Where two headings read alike, the source gives them in different places.

Assays:
[1] = system: Escherichia Coli (E. coli, ATCC25922); test: Anti-microbial rate of finished cotton textiles, FZ/T73023-2006 D.8 shocking method; type: cell-based; conditions: Escherichia coli, ATCC25922, finishing liquid 1.0 wt %, read-out: Anti-microbial rate (%) of cotton textiles finished with compound E (1.0 wt %), E. coli
Excerpt: (§1) Each of the reaction products (i.e., compound E) according to Examples 1-21 was used to prepare an anti-microbial agent (e.g., a finishing liquid), and the anti-microbial effects were different depending on compound E and conditions of use.
(§2) Remarks: 1) in the data of anti-microbial rate in Table 5: Examples 1-9 used a soaking-rolling-drying process to finish cotton fabric, where the bath ratio (i.e., the ratio of the weight of a liquid containing compound E to the weight of the cotton fabric) was 20:1, the residual liquid ratio was 90%, and the drying process was conducted at 85° C. for 30 minutes; Examples 10-18 were prepared by a soaking-high speed spinning-drying method, where the bath ratio was 20:1, the residual liquid ratio was 90%, and the drying process was conducted at 85° C. for 20 min; Examples 19-21 were prepared by a spraying-spinning-drying process with a bath ratio of 30:1, a residual liquid ratio of 85% after drying, and the drying process was conducted at 105° C. for 5 minutes.
(§3) 2) Table 5 data test method: FZ/T73023-2006 anti-microbial textiles D.8 shocking method. In addition, the inhibition zone method (FZ/T73023-2006 anti-microbial textiles—Appendix E—inhibition zone method) was used to test whether the active compound (E) was released from the finished cotton textiles, the inhibition zone test result of the 21 examples and zwitterions were 0 mm, and thus compound E was not released from the finished cotton textiles. The anti-microbial finishing agent used in the comparative experiment was zwitterion with the molecular structure
(§4) 3) The composition of the finishing liquid in Table 5 was: compound E 1.0 wt %, sodium bicarbonate 1.0 wt %, and the rest of the finishing liquid was water.

[2] = system: Candida Albicans (C. albicans 10231); test: as above; type: cell-based; conditions: Candida albicans, finishing liquid 1.0 wt %, read-out: Anti-microbial rate (%) of cotton textiles finished with compound E (1.0 wt %), C. albicans
Excerpt: as §1, §2, §3, §4

[3] = system: Staphylococcus Aureus (S. aureus, ATCC 6538); test: as above; type: cell-based; conditions: Staphylococcus aureus, ATCC6538, finishing liquid 1.0 wt %, read-out: Anti-microbial rate (%) of cotton textiles finished with compound E (1.0 wt %), S. aureus
Excerpt: as §1, §2, §3, §4

[4] = system: Escherichia coli (E. coli, ATCC 25922); test: Anti-microbial performance of finished textiles, shock method (GB/T 20944.3-2007); type: cell-based
Description: (§5) (1) A comparison of the anti-microbial effects of textiles soaked with compound E obtained in Example 2 and unsoaked textiles was shown in FIG. 1. The experimental procedure was: The anti-microbial performance of the finishing text was tested by the shock method (GB/T 20944.3-2007). The tested microorganism were Gram-negative Escherichia coli (E. coli, ATCC 25922) and Gram-positive Staphylococcus Aureus (S. Aureus, ATCC 6538). The specific experimental operations are as follows: 1) inoculating and culturing the microorganisms at 37° C. for 14 h; diluting the microbial solution to 10^−5 using a sterilized PBS buffer (pH=7.2) to obtain a diluted microbial solution; 2) taking the same size of blank textiles (e.g., cloth) and textiles (finished using compound E and sterilized) in different 50 mL tubes, adding 5 mL of diluted microbial solution to immerse the textiles, sealing the tubes and putting the tubes on a shaker for shaking the tubes under 37° C. at 190 r/min for 24 h; 3) after 24 hours of cultivation, the tubes were taken out and diluted to 10 times using a PBS solution. 100 μL of the diluted microbial solution was added to the nutrient agar medium, uniformly spread to dryness, placed in an incubator, and cultured at 37° C. for 16 h, and then the plates were taken out, and the number of colonies in each plate was counted. The anti-microbial rate was calculated by the following equation: Anti-microbial rate (%)=[…]. Notes: N1 denotes the number of colonies in the finished cloth; N0 denotes the number of colonies in blank cloth.
(§6) The inhibitory effect of compound E obtained in Example 19 on Escherichia coli and Staphylococcus Aureus at various concentrations was shown in FIGS. 3 to 5. The experimental procedure was: using the enzyme linked immunosorbent assay to determine the minimal inhibitory concentration (MIC) value of the anti-microbial drug, and adding the diluted anti-microbial drug solution to the sterilized 100-well plate, respectively. Specifically, 10 ul of drug solution (i.e., a solution of compound E) was added to the first to eleventh holes at concentrations of 100 μg/ml, 90 μg/ml, 80 μg/ml, 70 μg/ml, 60 μg/ml, 50 μg/ml, 40 μg/ml, 30 μg/ml, 20 μg/ml, 10 μg/ml, 5 μg/ml. The drug solution was not added to the twelfth hole which serves as a control group; the bacterial suspension was diluted by LB broth (0.5 Mcfarland Standard dilution to 1000 times with a bacterial concentration of 105 colony-forming unit (CFU)/ml), and 90 μl of the bacterial suspension was added to each well. […] The change curve of OD600 value for 24 h was measured in a microplate reader (automatic growth-curve machine). […]

[5] = system: Staphylococcus Aureus (S. aureus, ATCC 6538); test: as above; type: cell-based
Description: as §5, §6

[6] = system: house dust mites; test: Anti-mite activity of finished textiles (GB/T 24253-2009); type: in vivo
Description: (§7) (2) A comparison of the anti-microbial effects of textiles soaked with compound E obtained in Example 11 and unsoaked textiles was shown in FIG. 2. The experimental procedure was as follows: the anti-microbial performance of the finished textiles was tested by the live cell counting method, and the anti-mite activity of the house dust mites was evaluated according to the national standard method (GB/T 24253-2009).

[7] = system: Gram-positive bacteria (Staphylococcus aureus); test: Anti-microbial performance of finished textiles, live cell counting method; type: cell-based; conditions: textiles soaked with compound E (1.0 wt %)
Description: as §7

[8] = system: fungi (Aspergillus niger); test: as above; type: cell-based; conditions: textiles soaked with compound E (1.0 wt %)
Description: as §7

[9] = system: Gram-negative bacteria (E. coli); test: as above; type: cell-based; conditions: textiles soaked with compound E (1.0 wt %)
Description: as §7

[10] = system: Staphylococcus Aureus; test: Minimal inhibitory concentration (MIC), OD600 growth curve in microplate reader; type: cell-based; conditions: LB broth, OD600 for 24 h, read-out: minimum inhibitory concentration against Staphylococcus Aureus
Description: (§8) The inhibitory effect of compound E obtained in Example 19 on Escherichia coli and Staphylococcus Aureus at various concentrations was shown in FIGS. 3 to 5. The experimental procedure was: using the enzyme linked immunosorbent assay to determine the minimal inhibitory concentration (MIC) value of the anti-microbial drug, and adding the diluted anti-microbial drug solution to the sterilized 100-well plate, respectively. Specifically, 10 ul of drug solution (i.e., a solution of compound E) was added to the first to eleventh holes at concentrations of 100 μg/ml, 90 μg/ml, 80 μg/ml, 70 μg/ml, 60 μg/ml, 50 μg/ml, 40 μg/ml, 30 μg/ml, 20 μg/ml, 10 μg/ml, 5 μg/ml. The drug solution was not added to the twelfth hole which serves as a control group; the bacterial suspension was diluted by LB broth (0.5 Mcfarland Standard dilution to 1000 times with a bacterial concentration of 105 colony-forming unit (CFU)/ml), and 90 μl of the bacterial suspension was added to each well. At this time, the drug concentrations of the first to the eleventh holes were 10 μg/ml, 9 μg/ml, 8 μg/ml, 7 μg/ml, and 6 μg/ml, 5 μg/ml, 4 μg/ml, 3 μg/ml, 2 μg/ml, 1 μg/ml, 0.5 μg/ml respectively. The change curve of OD600 value for 24 h was measured in a microplate reader (automatic growth-curve machine). […]

[11] = system: Escherichia coli; test: as above; type: cell-based; conditions: LB broth, OD600 for 24 h, read-out: minimum inhibitory concentration against Escherichia coli
Description: as §8

[12] = both finishing liquids 1.0 wt %
[13] = finished cloth, concentration of compound E >0.1%

| MIC [10] | MIC [11] | Structure (SMILES) | killing at 1 % ([1]; times of washing 0) | killing at 1 % ([1]; times of washing 10) | killing at 1 % ([1]; times of washing 50) | killing at 1 % ([2]; times of washing 0) | killing at 1 % ([2]; times of washing 10) | killing at 1 % ([2]; times of washing 50) | killing at 1 % ([3]; times of washing 0) | killing at 1 % ([3]; times of washing 10) | killing at 1 % ([3]; times of washing 50) | anti-microbial activity of finishing liquid compared with zwitterionic finishing liquid, E. coli [4, 12] | anti-microbial activity of finishing liquid compared with zwitterionic finishing liquid, S. aureus [5, 12] | acaricidal activity against house dust mites [6] | bacteriostatic rate, Staphylococcus aureus [7] | bacteriostatic rate, Aspergillus niger [8] | bacteriostatic rate, E. coli [9] | anti-microbial rate of the anti-microbial finishing liquid, E. coli [4, 13] | anti-microbial rate of the anti-microbial finishing liquid, S. aureus [5, 13] |
| --- | --- | --- | --- | --- | --- | --- | --- | --- | --- | --- | --- | --- | --- | --- | --- | --- | --- | --- | --- |
| – | – | CCCCCCCC[N+](C)(C)CCOc1nc(Cl)nc(Cl)n1 [Example 1] | 100% | 99.9% | 99.2% | 99.9% | 99.9% | 98.9% | 100% | 99.9% | 99.8% | greater than that of the zwitterionic finishing liquid | greater than that of the zwitterionic finishing liquid | – | – | – | – | – | – |
| – | – | CCCCCCCCCCCCCCCCCC[n+]1ccn(CCOc2nc(Cl)nc(Cl)n2)c1 [Example 11] | 100% | 99.9% | 99.9% | 99.9% | 99.9% | 99.6% | 100% | 99.9% | 99.9% | – | – | good acaricidal activity | over 99.99% | over 99.99% | over 99.99% | – | – |
| 1 µg/mL | 4 µg/mL | Br.CCCCCCCCCC[N+](C)(C)CN(CCOc1nc(Cl)nc(Cl)n1)C[N+](C)(C)CCCCCCCCCC [Example 19] | 100% | 99.9% | 99.7% | 99.9% | 99.9% | 97.9% | 100% | 99.9% | 99.8% | – | – | – | – | – | – | > 99.9% | > 99.9% |
